Measured values: patent US10294202B2, “Pyrrolidinones as herbicides” (FMC Corporation, priority 2013, dated 2019)

What was measured:
[1] = tested on: lambsquarters; test: Test C pre-/postemergence herbicide test; type: in vivo, Chenopodium album
Outline: (§1)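 Visual rating, 0 (no effect) to 100 (complete control), versus untreated controls after 13 to 15 days in the greenhouse. Pre: seeds in loam/sand, sprayed at planting. Post: 1- to 4-leaf plants (2 to 18 cm) in peat-based mix. Compounds in non-phytotoxic solvent plus surfactant.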

[2] = tested on: pigweed; test: Test C pre-/postemergence herbicide test; type: in vivo, Amaranthus retroflexus
Outline: as §1

[3] = tested on: blackgrass; test: Test C pre-/postemergence herbicide test; type: in vivo, Alopecurus myosuroides
Outline: as §1

[4] = tested on: morningglory; test: Test C pre-/postemergence herbicide test; type: in vivo, Ipomoea coccinea
Outline: as §1

[5] = tested on: sedge, umbrella; test: Test B flooded paddy test; type: in vivo, Cyperus difformis; conditions: 250 g ai/ha, Flood; scale of 0 to 100 where 0 is no effect and 100 is complete control
Outline: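 Scored visually 0–100 (0 no effect, 100 complete control) versus controls after 13 to 15 greenhouse days. Treatment: compound added to paddy water kept 3 cm above soil, on 2-leaf-stage plants.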

[6] = tested on: johnsongrass; test: Test C pre-/postemergence herbicide test; type: in vivo, Sorghum halepense
Outline: as §1

[7] = tested on: galium; test: Test C pre-/postemergence herbicide test; type: in vivo, Galium aparine
Outline: as §1

[8] = tested on: wheat; test: Test A pre-/postemergence herbicide test; type: in vivo, Triticum aestivum
Outline: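 Seeds sown in loam soil/sand blend received a preemergence directed soil spray of test chemical in non-phytotoxic solvent with surfactant; postemergence plants (2–10 cm, one- to two-leaf stage) were sprayed with the same formulation. After about 10 days in greenhouse, injury was rated visually versus untreated controls, 0 (no effect) to 100 (complete control).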

[9] = tested on: wheat (winter wheat); test: Test C pre-/postemergence herbicide test; type: in vivo, Triticum aestivum
Outline: as §1

[10] = tested on: crabgrass, large; test: Test C pre-/postemergence herbicide test; type: in vivo, Digitaria sanguinalis
Outline: as §1

[11] = Postemergence, 31 g ai/ha, scale 0 (no effect) to 100 (complete control)
[12] = Postemergence, 62 g ai/ha, scale 0 to 100 (0 no effect, 100 complete control)
[13] = Postemergence, 125 g ai/ha, scale 0 to 100 (0 no effect, 100 complete control)
[14] = Postemergence, 250 g ai/ha, scale 0 to 100 (0 no effect, 100 complete control)
[15] = Preemergence, 62 g ai/ha, scale 0 to 100
[16] = Preemergence, 125 g ai/ha, scale 0 to 100 (0 no effect, 100 complete control)
[17] = Preemergence, 31 g ai/ha, scale 0 to 100 (0 no effect, 100 complete control)
[18] = Preemergence, 250 g ai/ha, scale 0 to 100 (0 no effect, 100 complete control)
[19] = Postemergence, 1000 g ai/ha, 0 to 100 scale (0 no effect, 100 complete control)
[20] = Preemergence, 1000 g ai/ha, visual rating on 0 to 100 scale (0 no effect, 100 complete control), approx. 10 days
[21] = Preemergence, 31 g ai/ha, scale 0 to 100, 0 is no effect and 100 is complete control
[22] = Postemergence, 125 g ai/ha, 0 to 100 scale, 0 no effect, 100 complete control
[23] = Postemergence, 500 g ai/ha, 0 to 100 scale (0 no effect, 100 complete control)
[24] = Preemergence, 125 g ai/ha, visual rating on 0 to 100 scale (0 no effect, 100 complete control)
[25] = preemergence, 500 g ai/ha, 0 to 100 scale

SMILES: O=C1NCC(c2cc(F)c(F)c(F)c2)C1C(=O)Nc1ccccc1F (racemic) [Compound 34]
- Plant response rating, Lambsquarters [1, 11]: 0
- Plant response rating, Lambsquarters [1, 12]: 0
- Plant response rating, Lambsquarters [1, 13]: 10
- Plant response rating, Lambsquarters [1, 14]: 55
- Plant response rating, Lambsquarters [1, 15]: 40
- Plant response rating, Lambsquarters [1, 16]: 80
- Plant response rating, Pigweed [2, 11]: 0
- Plant response rating, Pigweed [2, 12]: 0
- Plant response rating, Pigweed [2, 13]: 0
- Plant response rating, Pigweed [2, 14]: 10
- Plant response rating, Pigweed [2, 15]: 0
- Plant response rating, Pigweed [2, 16]: 0
- Plant response rating, Blackgrass [3, 11]: 0
- Plant response rating, Blackgrass [3, 12]: 0
- Plant response rating, Blackgrass [3, 13]: 0
- Plant response rating, Blackgrass [3, 14]: 0
- Blackgrass plant response rating [3, 17]: 0
- Plant response rating, Blackgrass [3, 15]: 0
- Plant response rating, Blackgrass [3, 16]: 10
- Plant response rating, Blackgrass [3, 18]: 45
- Plant response rating, Morningglory [4, 11]: 0
- Plant response rating, Morningglory [4, 12]: 5
- Plant response rating, Morningglory [4, 13]: 5
- Plant response rating, Morningglory [4, 14]: 10
- Plant response rating, Morningglory [4, 15]: 0
- Plant response rating, Morningglory [4, 16]: 5
- Plant response rating, Sedge, Umbrella [5]: 0
- Plant response rating, Johnsongrass [6, 11]: 0
- Plant response rating, Johnsongrass [6, 12]: 0
- Plant response rating, Johnsongrass [6, 13]: 0
- Plant response rating, Johnsongrass [6, 14]: 0
- Plant response rating, Johnsongrass [6, 15]: 10
- Plant response rating, Johnsongrass [6, 16]: 10
- Plant response rating, Galium [7, 11]: 0
- Plant response rating, Galium [7, 12]: 0
- Plant response rating, Galium [7, 13]: 0
- Plant response rating, Galium [7, 14]: 10
- Galium plant response rating [7, 17]: 0
- Plant response rating, Galium [7, 15]: 0
- Plant response rating, Galium [7, 16]: 5
- Plant response rating, Galium [7, 18]: 60
- Plant response rating, Wheat [8, 19]: 70
- Plant response rating, Wheat [8, 20]: 60
- Plant response rating, Wheat [9, 11]: 0
- Plant response rating, Wheat [9, 12]: 0
- Plant response rating, Wheat [9, 13]: 0
- Plant response rating, Wheat [9, 14]: 0
- Plant response rating, Wheat [9, 15]: 0
- Plant response rating, Wheat [9, 16]: 35
- Plant response rating, Crabgrass, Large [10, 11]: 0
- Plant response rating, Crabgrass, Large [10, 12]: 30
- Plant response rating, Crabgrass, Large [10, 13]: 40
- Plant response rating, Crabgrass, Large [10, 14]: 60
- Crabgrass, Large plant response rating [10, 17]: 95
- Plant response rating, Crabgrass, Large [10, 15]: 98
- Plant response rating, Crabgrass, Large [10, 16]: 100
- Plant response rating, Crabgrass, Large [10, 18]: 100

SMILES: Cc1ccccc1NC(=O)C1C(=O)NCC1c1cc(F)c(F)c(F)c1 (racemic) [Compound 35]
- Plant response rating, Lambsquarters [1, 15]: 0
- Plant response rating, Lambsquarters [1, 16]: 0
- Plant response rating, Pigweed [2, 15]: 0
- Plant response rating, Pigweed [2, 16]: 0
- Blackgrass plant response rating [3, 17]: 0
- Plant response rating, Blackgrass [3, 15]: 0
- Plant response rating, Blackgrass [3, 16]: 5
- Plant response rating, Blackgrass [3, 18]: 50
- Plant response rating, Morningglory [4, 15]: 10
- Plant response rating, Morningglory [4, 16]: 10
- Plant response rating, Sedge, Umbrella [5]: 0
- Plant response rating, Johnsongrass [6, 15]: 0
- Plant response rating, Johnsongrass [6, 16]: 0
- Galium plant response rating [7, 17]: 0
- Plant response rating, Galium [7, 15]: 0
- Plant response rating, Galium [7, 16]: 5
- Plant response rating, Galium [7, 18]: 30
- Plant response rating, Wheat [8, 19]: 40
- Plant response rating, Wheat [8, 20]: 0
- Plant response rating, Wheat [9, 15]: 0
- Plant response rating, Wheat [9, 16]: 10
- Crabgrass, Large plant response rating [10, 17]: 95
- Plant response rating, Crabgrass, Large [10, 15]: 98
- Plant response rating, Crabgrass, Large [10, 16]: 100
- Plant response rating, Crabgrass, Large [10, 18]: 100

SMILES: O=C1NCC(c2ccccc2)C1C(=O)Nc1ccccc1F (racemic) [Compound 81]
- Plant response rating, Lambsquarters [1, 11]: 0
- Plant response rating, Lambsquarters [1, 12]: 0
- Plant response rating, Lambsquarters [1, 13]: 0
- Plant response rating, Lambsquarters [1, 14]: 3
- Lambsquarters plant response rating [1, 21]: 0
- Plant response rating, Lambsquarters [1, 15]: 0
- Plant response rating, Lambsquarters [1, 16]: 0
- Plant response rating (scale of 0 to 100), Lambsquarters ([1]; Preemergence, 250 g ai/ha): 27
- Plant response rating, Pigweed [2, 11]: 0
- Plant response rating, Pigweed [2, 12]: 0
- Plant response rating, Pigweed [2, 13]: 0
- Plant response rating, Pigweed [2, 14]: 0
- Pigweed plant response rating [2, 21]: 0
- Plant response rating, Pigweed [2, 15]: 0
- Plant response rating, Pigweed [2, 16]: 0
- Plant response rating (scale of 0 to 100), Pigweed ([2]; Preemergence, 250 g ai/ha): 0
- Plant response rating, Blackgrass [3, 11]: 0
- Plant response rating, Blackgrass [3, 12]: 0
- Plant response rating, Blackgrass [3, 13]: 0
- Plant response rating, Blackgrass [3, 14]: 0
- Blackgrass plant response rating [3, 21]: 0
- Plant response rating, Blackgrass [3, 15]: 0
- Plant response rating, Blackgrass [3, 16]: 0
- Plant response rating (scale of 0 to 100), Blackgrass ([3]; Preemergence, 250 g ai/ha): 0
- Plant response rating, Morningglory [4, 11]: 0
- Plant response rating, Morningglory [4, 12]: 0
- Plant response rating, Morningglory [4, 13]: 0
- Plant response rating, Morningglory [4, 14]: 0
- Morningglory plant response rating [4, 21]: 0
- Plant response rating, Morningglory [4, 15]: 0
- Plant response rating, Morningglory [4, 16]: 0
- Plant response rating (scale of 0 to 100), Morningglory ([4]; Preemergence, 250 g ai/ha): 0
- Plant response rating, Sedge, Umbrella [5]: 0
- Plant response rating, Johnsongrass [6, 11]: 0
- Plant response rating, Johnsongrass [6, 12]: 0
- Plant response rating, Johnsongrass [6, 13]: 0
- Plant response rating, Johnsongrass [6, 14]: 0
- Johnsongrass plant response rating [6, 21]: 0
- Plant response rating, Johnsongrass [6, 15]: 0
- Plant response rating, Johnsongrass [6, 16]: 0
- Plant response rating (scale of 0 to 100), Johnsongrass ([6]; Preemergence, 250 g ai/ha): 0
- Galium plant response rating [7, 21]: 0
- Plant response rating, Galium [7, 15]: 0
- Plant response rating, Galium [7, 16]: 0
- Plant response rating (scale of 0 to 100), Galium ([7]; Preemergence, 250 g ai/ha): 0
- Plant response rating, Wheat [8, 22]: 0
- Plant response rating, Wheat [8, 23]: 0
- Wheat plant response rating [8, 24]: 0
- Plant response rating, Wheat [8, 25]: 20
- Plant response rating, Wheat [9, 11]: 0
- Plant response rating, Wheat [9, 12]: 0
- Plant response rating, Wheat [9, 13]: 0
- Plant response rating, Wheat [9, 14]: 0
- Wheat plant response rating [9, 21]: 0
- Plant response rating, Wheat [9, 15]: 0
- Plant response rating, Wheat [9, 16]: 0
- Plant response rating (scale of 0 to 100), Wheat ([9]; Preemergence, 250 g ai/ha): 0
- Plant response rating, Crabgrass, Large [10, 11]: 0
- Plant response rating, Crabgrass, Large [10, 12]: 0
- Plant response rating, Crabgrass, Large [10, 13]: 3
- Plant response rating, Crabgrass, Large [10, 14]: 7
- Crabgrass, Large plant response rating [10, 21]: 50
- Plant response rating, Crabgrass, Large [10, 15]: 75
- Plant response rating, Crabgrass, Large [10, 16]: 90
- Plant response rating (scale of 0 to 100), Crabgrass, Large ([10]; Preemergence, 250 g ai/ha): 95

SMILES: O=C1NCC(c2ccc(Cl)c(F)c2)C1C(=O)Nc1ccccc1F (stereo not drawn) [Compound 53]
- Plant response rating, Lambsquarters [1, 15]: 0
- Plant response rating, Lambsquarters [1, 16]: 40
- Plant response rating, Pigweed [2, 15]: 25
- Plant response rating, Pigweed [2, 16]: 25
- Blackgrass plant response rating [3, 17]: 0
- Plant response rating, Blackgrass [3, 15]: 0
- Plant response rating, Blackgrass [3, 16]: 0
- Plant response rating, Blackgrass [3, 18]: 0
- Plant response rating, Morningglory [4, 15]: 0
- Plant response rating, Morningglory [4, 16]: 0
- Plant response rating, Sedge, Umbrella [5]: 20
- Plant response rating, Johnsongrass [6, 15]: 0
- Plant response rating, Johnsongrass [6, 16]: 0
- Galium plant response rating [7, 17]: 0
- Plant response rating, Galium [7, 15]: 0
- Plant response rating, Galium [7, 16]: 0
- Plant response rating, Galium [7, 18]: 70
- Plant response rating, Wheat [8, 22]: 0
- Plant response rating, Wheat [8, 23]: 0
- Wheat plant response rating [8, 24]: 0
- Plant response rating, Wheat [8, 25]: 20
- Plant response rating, Wheat [9, 15]: 0
- Plant response rating, Wheat [9, 16]: 0
- Crabgrass, Large plant response rating [10, 17]: 80
- Plant response rating, Crabgrass, Large [10, 15]: 85
- Plant response rating, Crabgrass, Large [10, 16]: 90
- Plant response rating, Crabgrass, Large [10, 18]: 90
